Measured values from article PMC11312933, “Mystery of the Passerini Reaction for the Synthesis of the Antimicrobial Peptidomimetics against Nosocomial Pathogenic Bacteria” (International Journal of Molecular Sciences, 2024).
Converted amounts (≈) assume the structure as drawn.

Legend:
[1] = test system: E. coli (K12 (ATCC 25404), R2 (ATCC 39544), R3 (ATCC 11775), R4 (ATCC 39543)), A. baumannii (ATCC 17978), P. aeruginosa (ATCC 15442), E. cloacae (ATCC 49141) …; experiment: Minimum inhibitory concentration (MIC), microtiter plate method with resazurin; type: cell-based, S. aureus; conditions: Gram-negative and Gram-positive bacteria
Text: The reference bacterial strains of E.coli (K12 ATCC 25404, R2 ATCC 39544, R3 ATCC 11775, and R4 ATCC 39543) and Staphylococcus aureus strain (ATCC 23235), as well as Acinetobacter baumannii (ATCC 17978), Pseudomonas aeruginosa (ATCC 15442), and Enterobacter cloacae (ATCC 49141) were obtained from LGC Standards U.K. and were used according to the recommendation of ISO 11133 [30]. These strains were used to test the antibacterial activity of the analysed compounds by determining the minimum inhibitory concentration (MIC) and minimum bactericidal concentration (MBC), as described in [8, 9, 26, 27, 28, 29, 30, 31]. The results are shown in Figures S33 and S34 in the Supplementary Materials.
MIC and MBC were estimated using a microtiter plate method with sterile 48- or 96-well plates, which is precisely described in [9]. Briefly, MIC and MBC, defined as the lowest concentration of a bacteriostatic agent, were determined. Briefly, 50 μL of the analysed compounds and the appropriate bacterial strains were added to the first row of the plate. Then, 25 μL of sterile Tryptone Soya Broth (TSB) medium was added to the other wells, and serial dilutions were performed. Subsequently, 200 μL of inoculated TSB medium containing resazurin (0.02 mg/mL) as an indicator was added to all wells. TSB medium was inoculated with 10^6 colony-forming units (CFU)/mL (approximately 0.5 McFarland units) of the bacterial strains. The plates were incubated at 30 °C for 24 h. Changes in colour from blue to pink or yellowish with turbidity were considered positive, and the lowest concentration at which no visible change in colour occurred was recorded as the MIC, according to Kowalczyk et al.. Each experiment (both MIC and MBC) was repeated at least three times.

[2] = test system: BALB/c3T3 mouse embryonic fibroblast cell line; experiment: MTT cytotoxicity assay
Experimental: (§1) The cytotoxic effects of the tested peptidomimetics 1–16 on BALB/c3T3 mouse fibroblast cells were determined using the MTT assay after 24 h of incubation at five different concentrations (1, 2, 4, 6, and 8 µg/mL). The MTT test is based on the ability of the mitochondrial dehydrogenase enzymes to convert an orange, water-soluble tetrazolium salt (3-(4,5-dimethylthiazol-2-yl)-2,5-diphenyltetrazolium bromide) into an insoluble formazan, which is a dark blue product of the above reaction. After dissolving the formazan crystals in DMSO or isopropanol, a coloured solution was formed, the intensity of which is measured spectrophotometrically within the wavelength range of 492–570 nm. The amount of coloured reduced MTT is proportional to the oxidative activity of the cell’s mitochondria and, under strictly defined experimental conditions, to the number of metabolically active (living) cells in the population. The MTT test can also be used to determine cell viability in populations of cells that no longer divide but are metabolically active.

S. aureus = conditions: against S. aureus; cited from earlier work
MTT cytotoxicity assay = conditions: mouse
Experimental: as §1

[3] = test system: S. aureus strain (ATCC 23235); type: cell-based, Staphylococcus aureus; conditions: S. aureus (ATCC 23235)

Compound COc1ccc(CNC(=O)C(O)c2ccc(Br)cc2O)cc1 (stereo not drawn) has a melting point of 96 to 100 °C.

For COc1ccc(CNC(=O)C(OC(=O)Cc2ccccc2)c2ccc(Br)cc2OC(C)=O)cc1 (stereo not drawn), the melting point was 107 to 108 °C.

With CC(=O)Oc1cc(Br)ccc1C(OC(=O)Cc1ccccc1)C(=O)NCc1ccccc1 (stereo not drawn) the melting point was 122 to 124 °C.

Work on CC(=O)Oc1ccc2ccc(=O)oc2c1C(OC(=O)Cc1ccccc1)C(=O)NCc1ccc(F)cc1 (stereo not drawn) yielded a melting point of 61 to 63 °C.

CC(=O)Oc1ccc2c(C(F)(F)F)cc(=O)oc2c1C(OC(=O)Cc1ccccc1)C(=O)NCc1ccccc1 (stereo not drawn) showed a melting point of 54 to 57 °C.

Compound CC(=O)Oc1ccc2c(C(F)(F)F)cc(=O)oc2c1C(OC(=O)Cc1ccccc1)C(=O)NCc1ccc(F)cc1 (stereo not drawn) has a melting point of 51 to 55 °C.

For “1-(7-Acetoxy-4-methyl-2-oxo-2H-chromen-8-yl)-2-((4-fluorobenzyl)amino)-2-oxoethyl 2-phenylacetate [Compound 1]”, the “spectrum of antibacterial activity” value [1] was “broad-spectrum activity” and the IC50 for fibroblasts ([2]; after 24 h of incubation) was 4.26 mg/L.

For Cc1cc(=O)oc2cc(OCc3ccc(-c4ccccc4)cc3)ccc12 [A], the IC50 (S. aureus) is listed as 9.7 µM.

With COc1ccc(CNC(=O)C(OC(=O)Cc2ccccc2)c2c(OC(C)=O)ccc3c(C)cc(=O)oc23)cc1 (stereo not drawn) [Compound 2, 1-(7-Acetoxy-4-methyl-2-oxo-2H-chromen-8-yl)-2-((4-methoxybenzyl)amino)-2-oxoethyl 2-phenylacetate] the melting point was 66 to 68 °C and the “spectrum of antibacterial activity” value [1] was “broad-spectrum activity”.

With CC(=O)Oc1ccc2ccc(=O)oc2c1C(OC(=O)Cc1ccccc1)C(=O)NCc1ccccc1 (stereo not drawn) [Compound 3, 1-(7-Acetoxy-2-oxo-2H-chromen-8-yl)-2-(benzylamino)-2-oxoethyl 2-phenylacetate] the melting point was 64 to 66 °C and the “spectrum of antibacterial activity” value [1] was “broad-spectrum activity”.

With COc1ccc(CNC(=O)C(OC(=O)Cc2ccccc2)c2c(OC(C)=O)ccc3ccc(=O)oc23)cc1 (stereo not drawn) [Compound 4, 1-(7-Acetoxy-2-oxo-2H-chromen-8-yl)-2-((4-methoxybenzyl)amino)-2-oxoethyl 2-phenylacetate] the melting point was 57 to 59 °C and the “spectrum of antibacterial activity” value [1] was “broad-spectrum activity”.

For CC(=O)Oc1ccc2c(C)cc(=O)oc2c1C(OC(=O)Cc1ccccc1)C(=O)NCc1ccc(F)cc1 (stereo not drawn) [Compound 6, 1-(7-Acetoxy-4-methyl-2-oxo-2H-chromen-8-yl)-2-((4-fluorobenzyl)amino)-2-oxoethyl 2-phenylacetate], the melting point was 56 to 59 °C and the viability at 24 h, 2 µg/mL (MTT cytotoxicity assay) was 87%.

For COc1ccc(CNC(=O)C(OC(=O)Cc2ccccc2)c2c(OC(C)=O)ccc3c(C(F)(F)F)cc(=O)oc23)cc1 (stereo not drawn) [Compound 9, 1-(7-Acetoxy-2-oxo-4-(trifluoromethyl)-2H-chromen-8-yl)-2-((4-methoxybenzyl)amino)-2-oxoethyl 2-phenylacetate], the melting point was 54 to 58 °C, the “spectrum of antibacterial activity” value [1] was “broad-spectrum activity” and the “activity against S. aureus” value [3] was “very potent activity”.

With COc1ccc(CNC(=O)C(OC(=O)Cc2ccccc2)c2ccccc2OC(C)=O)cc1 (stereo not drawn) [Compound 14, 1-(2-Acetoxyphenyl)-2-((4-methoxybenzyl)amino)-2-oxoethyl 2-phenylacetate] the IC50 ([2]; Mus musculus, BALB/c3T3, 24 h, read-out: IC50 for fibroblasts) was 7.22 mg/L (≈ 16.1 µM).

CC(=O)Oc1ccccc1C(OC(=O)Cc1ccccc1)C(=O)NCc1ccccc1 (stereo not drawn) [Compound 15, 1-(2-Acetoxyphenyl)-2-(benzylamino)-2-oxoethyl 2-phenylacetate] gave a viability at 24 h, 2 µg/mL (MTT cytotoxicity assay) of 66.5%.

In the case of Cc1cc(=O)oc2c(C)c(OCc3ccc(-c4ccccc4)cc3)ccc12 [Compound B], the IC50 (S. aureus) is listed as 3 µM.

Work on Cc1onc(-c2ccccc2Cl)c1C(=O)N[C@@H]1C(=O)N2[C@@H]1SC(C)(C)[C@@H]2C(=O)O [cloxacillin, reference compound] yielded a viability (MTT cytotoxicity assay; BALB/c3T3 mouse embryonic fibroblast cells) of 85 to 89.9%.
